Assay: gradient 5% acetonitrile 3 min, to 50% in 2 min, to 85% in 15 min, held 3 min, 100 µL/min
Settings: column: Zorbax Extend-C18 2.1 x 50 mm; eluents: water / acetonitrile, 0.1% formic acid
Procedure, shortened: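 The mobile phases were water and acetonitrile, each with 0.1% formic acid, pumped at 100 μL/min through a Zorbax Extend-C18 column (2.1 × 50 mm, 1.8 μm). Pure standards were injected as mixtures of ~100 molecules and detected by a quadrupole time-of-flight mass spectrometer in positive and negative ionization mode. Retention time came from computationally picked adduct peaks, each inspected by hand.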

Compared with Cc1ccc(-n2cc3c(N4CCCC(C(=O)NCc5ccccc5C(F)(F)F)C4)ncnc3n2)cc1 (stereo not given), Cc1cccc(CNC(=O)C2CCCN(c3ccc(=O)n(-c4ccc(C)c(Cl)c4)n3)C2)c1 (stereo not given) is higher in RP-LC retention time: 775 s for the first, 984 s for the second.

Compared with COc1ccc(Cl)cc1NC(=O)Nc1ccccc1NC(=O)c1ccco1, O=C(Nc1cnc(-c2ccccc2)nc1)c1ccc(F)c(F)c1 is higher in RP-LC retention time: 873 s for the first, 1030 s for the second.

Compared with CCOC(=O)c1noc2ncnc(NCCc3ccc(C)cc3)c12, CC(=O)NCc1ccc(-c2noc(Cc3ccc(Br)cc3)n2)s1 is lower in RP-LC retention time: 1060 s for the first, 890 s for the second.

Compared with CCOc1ccc(-c2ccc(=O)n(Cc3nc(-c4ccc(C)cc4)no3)n2)cc1, COc1cccc(-c2noc(CCn3nc(-c4ccc(Cl)cc4)ccc3=O)n2)c1OC is lower in RP-LC retention time: 1150 s for the first, 1010 s for the second.

First: CCCCNC(=O)CCC1CCN(c2cc(NCCC)ncn2)CC1
Second: CCNc1cc(N2CCCC(CCC(=O)N3CCc4ccccc4C3)C2)ncn1 (stereo not given)
The RP-LC retention time of the first is lower: 658 s for the first, 694 s for the second.

First: COc1cccc(CC(=O)N2CCC3(CC2)NC(=O)c2cc(C)ccc2N3C)c1
Second: COc1ccc(CCC(=O)N2CCN(c3cc(C)c4ccccc4n3)CC2)cc1OC
The RP-LC retention time of the first is higher: 798 s for the first, 645 s for the second.

First: Cc1cc(C(=O)Nc2nc3c(C)cc(Cl)cc3s2)on1
Second: Cc1nn(C)cc1C(=O)Nc1nc2ccccc2[nH]1
The RP-LC retention time of the first is higher: 985 s for the first, 537 s for the second.

Going from Cc1ccccc1NC(=O)N1CCC(N(CCC(C)C)C2CCOCC2)CC1 to Cc1ccc(NC(=O)N2CCC(c3cc(N)on3)CC2)cc1, the RP-LC retention time rises from 636 s to 686 s.

Compared with O=C(COc1ccc(Cl)cc1)Nc1nnc(SCC(=O)NC2CCCC2)s1, CCOc1ccc(-c2nnc(SCC(=O)N3CCCC3)o2)cc1 is lower in RP-LC retention time: 798 s for the first, 757 s for the second.

First: COc1cccc(C(O)CN2CCN(c3cccc(OC)c3)CC2)c1 (stereo not given)
Second: CCCn1c(=O)c2cc(C(=O)N3CCN(c4ccccc4)CC3)nn2c2ccccc21
The RP-LC retention time of the first is lower: 659 s for the first, 1030 s for the second.

Compared with COc1ccccc1C(=O)N1CCCC1COc1ccc(C(=O)N2CCCC2)cc1 (stereo not given), O=C([C@@H]1C[C@H](F)CN1C(=O)c1ccc(F)cc1)N1CCCCC1 is lower in RP-LC retention time: 784 s for the first, 684 s for the second.

Compared with CCC(C)NC(=O)NC1CCN(c2nc3cccnc3n(Cc3ccc(C)cc3)c2=O)CC1 (stereo not given), CCc1ccc(S(=O)(=O)N2CCC(c3noc(-c4ccccc4C)n3)CC2)cc1 is higher in RP-LC retention time: 1040 s for the first, 1150 s for the second.

First: CCn1cnc(S(=O)(=O)N2CCC(C(=O)Nc3cccc(C)c3C)CC2)c1
Second: CCC(C)NC(=O)C1CCN(S(=O)(=O)c2cc(-c3noc(C)n3)cs2)CC1 (stereo not given)
The RP-LC retention time of the first is lower: 721 s for the first, 797 s for the second.

First: Cc1cccc(N2C=C(C(=O)N3CCOCC3)S(=O)(=O)c3ccc(Cl)cc32)c1
Second: Cc1cccc(NC(=O)Cn2nc(N3CCOCC3)c3ccccc3c2=O)c1
The RP-LC retention time of the first is higher: 868 s for the first, 783 s for the second.

Going from CC(C)(c1cc(Cl)c(O)c(CN2CCOCC2)c1)c1cc(Cl)c(O)c(CN2CCOCC2)c1 to CCOC(=O)N1CCN(Cc2nc(-c3ccc(N4CCCC4)nc3)no2)CC1, the RP-LC retention time falls from 630 s to 604 s.

First: COCCNC(=O)C(C)n1c(=O)c(C(F)(F)F)nc2cc(C)c(C)cc21 (stereo not given)
Second: CC(C)[C@@H](C(=O)NCCc1c[nH]c2ccc(F)cc12)n1nnc2ccccc2c1=O
The RP-LC retention time of the first is higher: 986 s for the first, 874 s for the second.

Compared with O=C1c2ccccc2C(=O)c2nc(-c3ccccc3)c(-c3ccccc3)nc21, O=C(NCc1cccc2ccccc12)C(=O)c1c[nH]c2ccccc12 is lower in RP-LC retention time: 1030 s for the first, 1010 s for the second.

Compared with O=C(NCC(O)c1ccc(C(F)(F)F)cc1)C(=O)Nc1ccc(F)cc1F (stereo not given), CC(C)OC(=O)c1cc2ccsc2n1CC(=O)NCc1ccc(F)cc1 is higher in RP-LC retention time: 880 s for the first, 954 s for the second.

First: Cc1cc2c(cc1C(=O)NCc1cccs1)OCCCO2
Second: O=C(NCc1cccs1)C1CCN(c2nnc(-c3ccccc3)o2)CC1
The RP-LC retention time of the first is higher: 804 s for the first, 769 s for the second.

Compared with CC(C)c1nc(CNC(=O)c2ccccc2)no1, CC(C)c1cc(NCc2ccccn2)n2ncc(-c3ccccc3)c2n1 is higher in RP-LC retention time: 707 s for the first, 1010 s for the second.

Compared with O=C(Cn1ccn2nc(-c3ccc(F)cc3)c(CO)c2c1=O)N1CCc2ccccc21, Cc1ccc(-c2noc(C3CC3)n2)cc1S(=O)(=O)N1CCC(C(=O)N2CCc3ccccc32)CC1 is higher in RP-LC retention time: 857 s for the first, 1140 s for the second.

First: O=C(NC1(c2nc(-c3ccncc3)no2)CCCCC1)c1ccccc1F
Second: O=C(c1nc(Nc2ccc(F)cc2)c2ccccc2n1)N1CCCCCC1
The RP-LC retention time of the first is higher: 911 s for the first, 845 s for the second.

First: CCc1csc(-c2ccc(N3CCN(C(=O)c4nccc5ccccc45)CC3)nc2)n1
Second: O=C(c1noc2c1CSc1ccccc1-2)N1CCN(c2ccccn2)CC1
The RP-LC retention time of the first is higher: 938 s for the first, 719 s for the second.

Compared with CCc1noc(NC(C)=O)c1-c1ccc(C)c(S(=O)(=O)NC(C)CC)c1 (stereo not given), COC(=O)c1cccc(NS(=O)(=O)c2cn(CC(C)C)c3ncccc23)c1 is higher in RP-LC retention time: 787 s for the first, 913 s for the second.

Going from CCC(CC)NC(=O)C1CCN(c2cn[nH]c(=O)c2)CC1 to CCCNC(=O)C1CCN(c2ccc(SCC(=O)Nc3ccc(C(=O)OCC)cc3)nn2)CC1, the RP-LC retention time rises from 604 s to 677 s.

Going from CCc1nc(OCC(=O)NCc2cc(OC)ccc2OC)c2c(C)c(C)oc2n1 to COc1ccc(C2CC(=O)c3c([nH]c(C(=O)OCC4CCCO4)c3C)C2)cc1OC (stereo not given), the RP-LC retention time falls from 971 s to 846 s.

Compared with CN(C)c1cccc(C(=O)NCC2CCN(C(=O)Oc3ccccc3)CC2)c1, CN(CCNC(=O)C1c2ccccc2C(=O)N(C)C1c1cccs1)C1CCCCC1 (stereo not given) is lower in RP-LC retention time: 723 s for the first, 706 s for the second.

First: N[C@@H](Cc1ccc2oc3cc(=O)c4ccccc4c-3nc2c1)C(=O)O
Second: COc1ccc(CCN2C(=O)CC(Sc3ccccc3C(=O)O)C2=O)cc1OC (stereo not given)
The RP-LC retention time of the first is lower: 611 s for the first, 703 s for the second.

First: Cc1cccc2c(C(=O)NC3CC3)c3c(nc12)CCC3
Second: CN(Cc1cccn1C)C(=O)NC1CCCCC1
The RP-LC retention time of the first is lower: 606 s for the first, 836 s for the second.

First: COC(=O)c1c(C)sc(-c2c(-c3ccc(Br)cc3)[nH]c3[nH]c(=O)[nH]c(=O)c23)c1O
Second: Clc1ccc(CSc2nnc(-c3ccc(Br)cc3)o2)cc1
The RP-LC retention time of the first is lower: 791 s for the first, 1270 s for the second.

Compared with COc1ccc(-c2noc(Cc3nnc(-c4cccc(F)c4)o3)n2)cc1OC, COc1ccc(-c2nnc(Cc3nc(-c4cccnc4)no3)o2)cc1 is lower in RP-LC retention time: 914 s for the first, 755 s for the second.

Going from Cc1cc(C)cc(-c2nc(-c3cccc(-c4ccn[nH]4)c3)no2)c1 to COc1cccc(-c2noc(CCn3nc(-c4cccc(Cl)c4)ccc3=O)n2)c1OC, the RP-LC retention time falls from 999 s to 947 s.

Compared with CCCCc1ccc(NC(=O)CSc2ccc(-c3ccncc3)nn2)cc1, CSc1ccc(CNC(=O)c2ccc3nc(CCc4ccc(NC(C)=O)cc4)[nH]c3c2)cc1 is lower in RP-LC retention time: 718 s for the first, 663 s for the second.

Going from OCC(O)COc1cccc2ccccc12 (stereo not given) to COc1ccc(CCC(=O)NCCCn2cccc2)cc1, the RP-LC retention time falls from 758 s to 757 s.

First: CCOc1ccc(NC(=O)N2C[C@H]3C[C@H](C2)[C@H]2CCCC(=O)N2C3)cc1
Second: COc1ccc(S(=O)(=O)N2CCCC(C(=O)Nc3ccc(F)cc3)C2)cc1OC (stereo not given)
The RP-LC retention time of the first is lower: 654 s for the first, 831 s for the second.

Going from CC(=O)N1CCc2cc(N3CC(C(=O)Nc4ccc(F)c(F)c4)CC3=O)ccc21 (stereo not given) to O=C(c1ccco1)N1CCN(C(=O)c2nnn3c2COC(c2ccc(Cl)cc2)C3)CC1 (stereo not given), the RP-LC retention time rises from 726 s to 838 s.

Going from Cc1ccccc1-c1noc(C2CCCN2S(=O)(=O)c2ccc(Br)s2)n1 (stereo not given) to O=C(c1n[nH]c2ccccc12)N1CCCC1c1nc(-c2cccc(C(F)(F)F)c2)no1 (stereo not given), the RP-LC retention time rises from 1230 s to 1330 s.

First: CCN(CC)C(=O)c1ccc(Cn2nc(C)c(S(=O)(=O)N3CCC(C)CC3)c2C)cc1
Second: CCc1nncn1C1CCN(S(=O)(=O)c2ccc(OC)c(OC)c2)CC1
The RP-LC retention time of the first is higher: 917 s for the first, 650 s for the second.

Compared with COc1cc([C@@H]2c3cc4c(cc3[C@H](O)[C@@H](CO)[C@@H]2C(=O)NC2CCCCC2)OCO4)cc(OC)c1OC, Cc1cc(C)cc(NC(=O)NCc2ccnc(N3CCSCC3)c2)c1 is lower in RP-LC retention time: 736 s for the first, 660 s for the second.

Compared with CCn1cc(C)c(C(=O)O)c1CC(=O)Nc1ccc(Cl)cn1, CN(C)c1nc2ncn3c(=O)n(CC(=O)Nc4ccccc4)nc3c2s1 is lower in RP-LC retention time: 835 s for the first, 670 s for the second.

Going from CCOC(=O)CSc1nc2ccccc2[nH]1 to Cc1cccc(-c2nnc(SCC(=O)N3CCC(C)CC3)o2)c1, the RP-LC retention time rises from 596 s to 969 s.

First: CC(C)n1c(=O)sc2cc(S(=O)(=O)N3CCC(C(=O)NCc4cccs4)CC3)ccc21
Second: CCN(Cc1ccccc1)C(=O)C1CCCN(S(=O)(=O)c2ccc3c(c2)CCCC(=O)N3)C1 (stereo not given)
The RP-LC retention time of the first is higher: 885 s for the first, 821 s for the second.

Compared with CCCC1c2nccn2CCCN1C(=O)Cc1c(C)noc1C (stereo not given), O=C(CCn1cnc2cc(-c3noc(CCc4c[nH]c5ccccc45)n3)ccc21)N1CCCC1 is higher in RP-LC retention time: 579 s for the first, 734 s for the second.

First: O=c1c(S(=O)(=O)N2CCCC2)cccn1Cc1ccccc1Cl
Second: CN(CC1CCOC1)C(=O)Nc1cccc(Cl)c1F (stereo not given)
The RP-LC retention time of the first is higher: 860 s for the first, 733 s for the second.

First: Nc1ncnc2c1nnn2C1OC(CO)C(O)C1O (stereo not given)
Second: CC(=O)N1CCC2(CC1)N(CC1CC1)C(=O)CS2=O (stereo not given)
The RP-LC retention time of the first is lower: 513 s for the first, 565 s for the second.

Source: the METLIN SMRT retention time set (Domingo-Almenara et al. 2019)
